This note sets out measurements from US12071434B2, “Heterocyclic compound” (Takeda Pharmaceutical Company Limited, priority 2018, dated 2024).

For this test, the target named is T1, human orexin type 2 receptor (Homo sapiens, UniProt O43614).
T1 construct: expressed in transfected cells
T1 sequence (O43614 1-444): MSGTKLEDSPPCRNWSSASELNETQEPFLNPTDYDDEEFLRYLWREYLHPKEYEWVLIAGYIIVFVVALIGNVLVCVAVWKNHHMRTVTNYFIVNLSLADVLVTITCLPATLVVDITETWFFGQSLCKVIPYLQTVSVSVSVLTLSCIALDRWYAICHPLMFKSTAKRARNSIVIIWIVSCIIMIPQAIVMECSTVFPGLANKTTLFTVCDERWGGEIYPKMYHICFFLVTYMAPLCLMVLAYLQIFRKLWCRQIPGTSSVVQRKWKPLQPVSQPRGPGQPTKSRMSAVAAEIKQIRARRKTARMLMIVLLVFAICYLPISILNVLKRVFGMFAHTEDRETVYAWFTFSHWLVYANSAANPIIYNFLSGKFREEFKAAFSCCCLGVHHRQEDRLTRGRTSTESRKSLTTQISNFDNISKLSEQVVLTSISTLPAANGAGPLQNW
In words: Measurement of orexin type 2 receptor agonist activity (calcium fluorescence, Fluo-4 AM, FDSS) in CHO cells forcibly expressing human OX2 receptor. The class given is cell-based. The note with it: test compound 3 μM, DMSO = 0%, orexin A (human) 10 nM = 100%. From the text: To obtain a cell clone stably expressing human orexin type 2 receptor, human orexin type 2 receptor cDNA was inserted into pcDNA3.1(+) plasmid vector (Invitrogen), and a plasmid DNA for expression of human orexin type 2 receptor (pcDNA3.1(+)/hOX2R) was cloned. The plasmid DNA was introduced into CHO-dhfr cell by an electroporation method, and human orexin type 2 receptor expressing clone cells were obtained by limiting dilution method by using G418 drug resistance as a selection marker.
CHO cells forcibly expressing human OX2 receptor were seeded in each well of 384 well black transparent bottom plate (BD Falcon) at 7,500 cells/well, and cultured for one day in a 5% CO2 incubator at 37° C. After removal of the medium in the cell plate, assay buffer A containing a calcium indicator (HBSS (Thermo Fisher Scientific), 20 mM HEPES (Thermo Fisher Scientific), 0.1% BSA (Sigma-Aldrich), 2.5 μg/mL Fluo-4 AM (DOJINDO Chemical), 0.08% Pluronic F127 (DOJINDO Chemical), 1.25 mM probenecid (DOJINDO Chemical)) was added at 30 μL/well. The plate was stood for 30 min in a 5% CO2 incubator at 37° C., and further stood at room temperature for 30 min. A test compound prepared by diluting with assay buffer B (HBSS, 20 mM HEPES, 0.1% BSA) was added at 10 μL/well, and the fluorescence value was measured by FDSSpCELL (Hamamatsu Photonics K.K.) every one sec for 1 min, and thereafter every two sec for 1 min 40 sec. The activity (%) of the test compound was calculated assuming that variation in the fluorescence value when DMSO was added instead of the test compound was 0%, and variation in the fluorescence value when orexin A (human) (PEPTIDE INSTITUTE, INC.) was added at the final concentration of 10 nM was 100%.
In the case of `CC(C)n1cnc2c(c1=O)[C@@H](Cc1cccc(-c3cccc(F)c3F)c1F)[C@@H](NS(=O)(=O)C1(F)CC1)CC2` [Example 184, 1-fluoro-N-{(5R,6S)-4-oxo-3-(propan-2-yl)-5-[(2,2′,3′-trifluoro[1,1′-biphenyl]-3-yl)methyl]-3,4,5,6,7,8-hexahydroquinazolin-6-yl}cyclopropane-1-sulfonamide], the “0X2R agonist activity (3 μM, %)” value was determined as 98%.

With `CS(=O)(=O)NC1CCc2ccc(C(F)(F)F)c(=O)n2C1Cc1cccc(-c2ccccc2)c1` (racemic) [Example 12, rac-N-[(3S,4S)-4-[([1,1′-biphenyl]-3-yl]methyl-6-oxo-7-(trifluoromethyl)-1,3,4,6-tetrahydro-2H-quinolizin-3-yl]methanesulfonamide], the “0X2R agonist activity (3 μM, %)” value was found to be 112%.

`CC(C)n1cnc2c(c1=O)[C@@H](Cc1cccc(-c3ccccc3)c1)[C@@H](NS(C)(=O)=O)CC2` (relative stereo) [Example 99, rel-N-[(5R,6S)-5-[([1,1′-biphenyl]-3-yl)methyl]-4-oxo-3-(propan-2-yl)-3,4,5,6,7,8-hexahydroquinazolin-6-yl]methanesulfonamide]: the “0X2R agonist activity (3 μM, %)” value is listed as 95%. Regarding `CCc1ccc2n(c1=O)[C@@H](Cc1cccc(-c3ccccc3)c1F)[C@@H](NS(C)(=O)=O)CC2` (racemic) [Example 104, rac-N-{(3S,4S)-7-ethyl-4-[(2-fluoro[1,1′-biphenyl]-3-yl)methyl]-6-oxo-1,3,4,6-tetrahydro-2H-quinolizin-3-yl}methanesulfonamide], the “0X2R agonist activity (3 μM, %)” value turned out to be 89%. As to `COC1(C(=O)N[C@H]2CCc3ccc(C)c(=O)n3[C@H]2Cc2cccc(-c3cccc(F)c3)c2F)CC1` (relative stereo) [Example 56, rel-N-{(3S,4S)-4-[(2,3′-difluoro[1,1′-biphenyl]-3-yl)methyl]-7-methyl-6-oxo-1,3,4,6-tetrahydro-2H-quinolizin-3-yl}-1-methoxycyclopropane-1-carboxamide], the “0X2R agonist activity (3 μM, %)” value was 93%. The result for `CCS(=O)(=O)N[C@H]1CCc2ncn(C(C)C)c(=O)c2[C@H]1Cc1cccc(-c2cccc(F)c2)c1F` [Example 170, N-[(5R,6S)-5-[(2,3′-difluoro[1,1′-biphenyl]-3-yl)methyl]-4-oxo-3-(propan-2-yl)-3,4,5,6,7,8-hexahydroquinazolin-6-yl]ethanesulfonamide] reads 87%; that for `Cc1cc(F)c2n(c1=O)[C@@H](Cc1cccc(-c3ccccc3)c1)[C@@H](NS(C)(=O)=O)CC2` (racemic) [Example 21, rac-N-{(3S,4S)-4-[([1,1′-biphenyl]-3-yl)methyl]-9-fluoro-7-methyl-6-oxo-1,3,4,6-tetrahydro-2H-quinolizin-3-yl}methanesulfonamide], 101%; that for `CC(C)n1cnc2c(c1=O)C(Cc1cccc(-c3ccccc3)c1)C(NS(=O)(=O)C1(F)CC1)CC2` (stereo not drawn) [Example 185, rel-N-{5-[([1,1′-biphenyl]-3-yl)methyl]-4-oxo-3-(propan-2-yl)-3,4,5,6,7,8-hexahydroquinazolin-6-yl}-1-fluorocyclopropane-1-sulfonamide], 95%. The result for `CCn1ccc2c(c1=O)[C@@H](Cc1cccc(-c3cccc4c3OCC4)c1)[C@@H](NS(C)(=O)=O)CC2` (racemic) [Example 126, rac-N-[(7S,8R)-8-{[3-(2,3-dihydro-1-benzofuran-7-yl)phenyl]methyl}-2-ethyl-1-oxo-1,2,5,6,7,8-hexahydroisoquinolin-7-yl]methanesulfonamide] reads 103%; that for `CC(C)n1cnc2c(c1=O)[C@@H](Cc1cccc(-c3cc(F)cc(F)c3)c1F)[C@@H](NS(=O)(=O)CF)CC2` [Example 199, 1-fluoro-N-{(5R,6S)-4-oxo-3-(propan-2-yl)-5-[(2,3′,5′-trifluoro[1,1′-biphenyl]-3-yl)methyl]-3,4,5,6,7,8-hexahydroquinazolin-6-yl}methanesulfonamide], 90%.
